The Ki is the dissociation constant of the complex between target and ligand, obtained from inhibition or displacement. For orientation: EC50 means the concentration needed to bring the measured effect to its halfway point. Read a high EC50 as a less potent agent.

Ki and EC50 data for 21 compounds are collected here from patent US10781204B2, “TYK2 inhibitors and uses thereof” (Nimbus Lakshmi, Inc., priority 2015, dated 2020).

Each structure is given as a SMILES string.

The target of test [1] is TYK2 (Homo sapiens (Human), UniProt P29597). In words: Tyk2 radioactive kinase assay. To be noted: ATP 10 μM. The test is classed as biochemical. Here is the method: (§1) Peptide substrate, [KKSRGDYMTMQIG], (20 μM) is prepared in reaction buffer (20 mM Hepes pH 7.5, 10 mM MgCl2, 1 mM EGTA, 0.02% Brij35, 0.02 mg/mL BSA, 0.1 mM […], 2 mM DTT, 1% DMSO. TYK2 (Invitrogen) kinase is added, followed by compounds in DMSO. ^33PATP is added to initiate the reaction with ATP at 10 μM. Kinase reaction is incubated for 120 min at room temp and reactions are spotted onto P81 ion exchange paper (Whatman #3698-915), and then washed extensively in 0.75% phosphoric acid, prior to reading the radioactivity counts. For JAK2 (Invitrogen) kinase assay the peptide substrate poly[Glu:Tyr] (4:1), 0.2 mg/ml is used, in the reaction carried out the same as for TYK2.

In test [2] the target is JAK2 (Homo sapiens (Human), UniProt O60674). Put plainly: JAK2 radioactive kinase assay. The test is classed as biochemical. To be noted: ATP 10 μM. On the procedure: as §1
The subject of test [3] is Tyk2-pSTAT4 (IL-12 induced pSTAT4). Put plainly: IL-12 induced pSTAT4 in human PBMC. To be noted: Homo sapiens, PBMC, 0.5 h, 1.7 ng/mL IL-12, 30 minutes. Type of test: cell-based. On the procedure: Human PBMC are isolated from buffy coat and are stored frozen for assays as needed. Cells for assay are thawed and resuspended in complete media containing serum, then cells are diluted to 1.67 E6 cells/ml so that 120 ul per well is 200,000 cells. 15 ul of compound or DMSO is added to the well at the desired concentrations and incubated at 1 hr at 37 C. 15 ul of stimulus (final concentration of 1.7 ng/mL IL-12) is added for 30 minutes prior to pSTAT4 and total STAT4 analysis using cell lysates prepared and analyzed by MSD reagents as per manufacturer protocol. The final DMSO concentration of compound in the assay is 0.1%.

TYK2, sequence (P29597 whole entry): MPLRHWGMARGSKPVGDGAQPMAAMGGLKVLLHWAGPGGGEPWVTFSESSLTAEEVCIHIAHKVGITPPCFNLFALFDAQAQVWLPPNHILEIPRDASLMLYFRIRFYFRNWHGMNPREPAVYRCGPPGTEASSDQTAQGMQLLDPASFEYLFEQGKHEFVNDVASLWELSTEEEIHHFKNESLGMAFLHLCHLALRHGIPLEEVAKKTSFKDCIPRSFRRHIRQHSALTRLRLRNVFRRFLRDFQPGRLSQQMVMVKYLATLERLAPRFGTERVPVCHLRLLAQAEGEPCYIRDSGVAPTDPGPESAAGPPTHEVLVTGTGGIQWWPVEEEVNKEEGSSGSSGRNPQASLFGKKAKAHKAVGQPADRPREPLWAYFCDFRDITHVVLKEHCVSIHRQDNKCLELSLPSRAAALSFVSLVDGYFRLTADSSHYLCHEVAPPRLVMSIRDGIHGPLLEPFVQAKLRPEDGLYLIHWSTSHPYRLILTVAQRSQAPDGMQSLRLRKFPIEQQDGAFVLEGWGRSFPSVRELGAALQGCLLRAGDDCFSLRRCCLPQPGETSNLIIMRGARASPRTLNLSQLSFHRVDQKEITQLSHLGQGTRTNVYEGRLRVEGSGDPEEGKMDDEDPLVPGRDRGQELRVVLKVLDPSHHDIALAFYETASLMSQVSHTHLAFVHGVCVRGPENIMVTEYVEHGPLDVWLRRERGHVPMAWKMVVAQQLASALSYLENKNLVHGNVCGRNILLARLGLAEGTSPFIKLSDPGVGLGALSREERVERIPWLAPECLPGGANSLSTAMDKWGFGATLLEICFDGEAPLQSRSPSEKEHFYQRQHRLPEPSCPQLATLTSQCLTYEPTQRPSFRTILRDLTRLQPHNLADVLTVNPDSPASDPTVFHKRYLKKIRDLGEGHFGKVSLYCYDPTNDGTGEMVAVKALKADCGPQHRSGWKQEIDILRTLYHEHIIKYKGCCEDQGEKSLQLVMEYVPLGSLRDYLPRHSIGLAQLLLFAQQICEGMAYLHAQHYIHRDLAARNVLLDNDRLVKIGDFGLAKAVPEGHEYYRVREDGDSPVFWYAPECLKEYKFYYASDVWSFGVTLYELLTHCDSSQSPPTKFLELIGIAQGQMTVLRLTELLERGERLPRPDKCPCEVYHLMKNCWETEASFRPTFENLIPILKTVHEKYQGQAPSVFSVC
JAK2, sequence (O60674 whole entry): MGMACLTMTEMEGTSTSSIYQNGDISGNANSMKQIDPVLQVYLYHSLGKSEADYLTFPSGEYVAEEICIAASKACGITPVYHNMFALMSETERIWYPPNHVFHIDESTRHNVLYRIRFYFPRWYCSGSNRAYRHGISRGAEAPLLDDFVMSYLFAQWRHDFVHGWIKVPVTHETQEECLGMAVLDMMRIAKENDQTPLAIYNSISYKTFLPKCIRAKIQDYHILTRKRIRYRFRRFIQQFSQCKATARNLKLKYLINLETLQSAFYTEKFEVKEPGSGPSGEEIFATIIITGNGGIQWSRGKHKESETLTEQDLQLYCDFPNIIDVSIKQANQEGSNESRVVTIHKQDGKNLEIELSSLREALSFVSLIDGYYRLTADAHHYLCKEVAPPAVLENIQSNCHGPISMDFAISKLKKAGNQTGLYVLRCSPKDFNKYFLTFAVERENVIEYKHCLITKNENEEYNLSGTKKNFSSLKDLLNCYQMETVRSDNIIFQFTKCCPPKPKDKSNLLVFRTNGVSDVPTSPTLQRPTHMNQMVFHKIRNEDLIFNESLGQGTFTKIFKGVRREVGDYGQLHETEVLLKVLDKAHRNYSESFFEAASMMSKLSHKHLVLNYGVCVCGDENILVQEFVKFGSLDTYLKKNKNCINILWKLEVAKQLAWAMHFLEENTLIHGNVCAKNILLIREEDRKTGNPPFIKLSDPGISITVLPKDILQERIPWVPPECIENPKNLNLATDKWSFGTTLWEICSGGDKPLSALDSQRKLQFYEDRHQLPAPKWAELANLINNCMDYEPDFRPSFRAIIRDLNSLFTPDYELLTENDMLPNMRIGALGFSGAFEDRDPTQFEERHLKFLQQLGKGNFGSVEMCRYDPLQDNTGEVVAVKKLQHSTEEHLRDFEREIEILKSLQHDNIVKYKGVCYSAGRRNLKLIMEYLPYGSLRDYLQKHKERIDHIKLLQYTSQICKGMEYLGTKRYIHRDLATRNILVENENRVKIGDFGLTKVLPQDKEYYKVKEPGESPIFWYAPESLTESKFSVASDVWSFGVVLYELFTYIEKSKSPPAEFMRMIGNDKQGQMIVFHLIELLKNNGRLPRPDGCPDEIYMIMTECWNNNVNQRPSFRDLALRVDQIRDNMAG

Regarding `N#Cc1cccc(F)c1-c1cc(-n2cc3c(n2)CCCN3)c2c(n1)CNC2=O` [I-77, 3-fluoro-2-(5-oxo-4-(4,5,6,7-tetrahydro-2H-pyrazolo[4,3-b]pyri-din-2-yl)-6,7-dihydro-5H-pyrrolo[3,4-b]pyridin-2-yl)benzonitrile], the results for the Ki in test [1] and in test [2] were 0.1 to 10 nM and 10 to 100 nM, respectively. In test [3], the EC50 is 30 to 100 nM.
`CC(C)n1cc(-c2cc(-c3c(F)cccc3C#N)nc3c2C(=O)NC3)cn1` [I-61, 3-fluoro-2-(4-(1-isopropyl-1H-pyrazol-4-yl)-5-oxo-6,7-dihydro-5H-pyrrolo[3,4-b]pyridin-2-yl)benzonitrile]: the Ki was in the range of 0.1 to 10 nM in test [1] and 10 to 100 nM in test [2]. The compound further gave an EC50 in test [3] of 100 to 2000 nM.
Regarding `N#Cc1cccc(F)c1-c1cc(-n2ccc(N3CCC[C@@H](N)C3)n2)c2c(n1)CNC2=O` [I-73, (R)-2-(4-(3-(3-aminopiperidin-1-yl)-1H-pyrazol-1-yl)-5-oxo-6,7-dihydro-5H-pyrrolo[3,4-b]pyridin-2-yl)-3-fluorobenzonitrile], the Ki in test [1] and in test [2] was 0.1 to 10 nM in each case. In test [3], this compound showed an EC50 of 100 to 2000 nM.
`N#Cc1cccc(F)c1-c1cc(-n2ccc(N3CCC[C@@H](C(=O)N4CCCC4)C3)n2)c2c(n1)CNC2=O` [I-167, (R)-3-fluoro-2-(5-oxo-4-(3-(3-(pyrrolidine-1-carbonyl)piperidin-1-yl)-1H-pyrazol-1-yl)-6,7-dihydro-5H-pyrrolo[3,4-b]pyridin-2-yl)benzonitrile]: the Ki in test [1] and in test [2] was 0.1 to 10 nM each time. For the same compound, the EC50 in test [3] was in the range of 100 to 2000 nM.
For the compound `[2H]C1([2H])N(c2ccn(-c3cc(-c4c(F)cccc4C#N)nc4c3C(=O)NC4)n2)C([2H])([2H])C([2H])(O)C1([2H])[2H]` (centres unmarked) [I-194, 3-fluoro-2-(4-(3-(3-hydroxypyrrolidin-1-yl-2,2,3,4,4,5,5-d7)-1H-pyrazol-1-yl)-5-oxo-6,7-dihydro-5H-pyrrolo[3,4-b]pyridin-2-yl)benzonitrile], the Ki in test [1] and in test [2] was 0.1 to 10 nM in each case. In test [3], this compound had an EC50 of 100 to 2000 nM.
Turning to `N#Cc1cccc(F)c1-c1cc(-n2ccc(N3CCCNC(=O)C3)n2)c2c(n1)CNC2=O` [I-140, 3-fluoro-2-(5-oxo-4-(3-(3-oxo-1,4-diazepan-1-yl)-1H-pyrazol-1-yl)-6,7-dihydro-5H-pyrrolo[3,4-b]pyridin-2-yl)benzonitrile], the inhibition constant (Ki) in test [1] and in test [2] was 0.1 to 10 nM in each case. The same compound displayed an EC50 in test [3] of 100 to 2000 nM.
Turning to `CC1(C)C(O)CCN1c1ccn(-c2cc(-c3c(F)cccc3C#N)nc3c2C(=O)NC3)n1` (centres unmarked) [I-187, 3-fluoro-2-(4-(3-(3-hydroxy-2,2-dimethylpyrrolidin-1-yl)-1H-pyrazol-1-yl)-5-oxo-6,7-dihydro-5H-pyrrolo[3,4-b]pyridin-2-yl)benzonitrile], the Ki lay in the range of 0.009 to 0.1 nM in test [1] and 0.1 to 10 nM in test [2]. The EC50 in test [3] is 100 to 2000 nM.
Take `C[C@@]1(O)CN(c2ccn(-c3cc(-c4c(F)cccc4C#N)nc4c3C(=O)NC4)n2)CC[C@H]1O` [I-182, 2-(4-(3-((3R,4R)-3,4-dihydroxy-3-methylpiperidin-1-yl)-1H-pyrazol-1-yl)-5-oxo-6,7-dihydro-5H-pyrrolo[3,4-b]pyridin-2-yl)-3-fluorobenzonitrile]: the Ki in test [1] and in test [2] was 0.1 to 10 nM throughout. The compound further displayed a 50% effective concentration (EC50) in test [3] of 30 to 100 nM.
On to `N#Cc1cccc(F)c1-c1cc(-n2ccc(N3CCNC(=O)C3)n2)c2c(n1)CNC2=O` [I-175, 3-fluoro-2-(5-oxo-4-(3-(3-oxopiperazin-1-yl)-1H-pyrazol-1-yl)-6,7-dihydro-5H-pyrrolo[3,4-b]pyridin-2-yl)benzonitrile], for which the Ki in test [1] fell in the range of 0.1 to 10 nM; in test [2], 100 to 1000 nM. The EC50 in test [3] lay in the range of 100 to 2000 nM.
The matching figures for `N#Cc1cccc(F)c1-c1cc(-n2ccc(N3CC[C@]4(C3)OC[C@@H](O)CO4)n2)c2c(n1)CNC2=O` [I-222, 3-fluoro-2-(4-(3-((5s,8s)-8-hydroxy-6,10-dioxa-2-azaspiro[4.5]decan-2-yl)-1H-pyrazol-1-yl)-5-oxo-6,7-dihydro-5H-pyrrolo[3,4-b]pyridin-2-yl)benzonitrile]: 0.1 to 10 nM, 10 to 100 nM and 100 to 2000 nM.
The matching figures for `CS(=O)(=O)N[C@@H]1CCN(c2ccn(-c3cc(-c4c(F)cccc4C#N)nc4c3C(=O)NC4)n2)C1` [I-134, (R)-N-(1-(1-(2-(2-cyano-6-fluorophenyl)-5-oxo-6,7-dihydro-5H-pyrrolo[3,4-b]pyridin-4-yl)-1H-pyrazol-3-yl)pyrrolidin-3-yl)methanesulfonamide]: 0.1 to 10 nM, 0.1 to 10 nM and 100 to 2000 nM.
`N#Cc1cccc(F)c1-c1cc(-n2ccc(N3CC[C@@](O)(C(=O)N4CCCC4)C3)n2)c2c(n1)CNC2=O` [I-197, (S)-3-fluoro-2-(4-(3-(3-hydroxy-3-(pyrrolidine-1-carbonyl)-pyrrolidin-1-yl)-1H-pyrazol-1-yl)-5-oxo-6,7-dihydro-5H-pyrrolo[3,4-b]pyridin-2-yl)benzonitrile]: the Ki in test [1] lay within 0.1 to 10 nM; in test [2] it was 10 to 100 nM. Also, the EC50 in test [3] is 100 to 2000 nM.
The matching figures for `N#Cc1cccc(F)c1-c1cc(-n2ccc(N3CC[C@@H](O)[C@@H](O)C3)n2)c2c(n1)CNC2=O` [I-105, 2-(4-(3-((3S,4R)-3,4-dihydroxypiperidin-1-yl)-1H-pyrazol-1-yl)-5-oxo-6,7-dihydro-5H-pyrrolo[3,4-b]pyridin-2-yl)-3-fluorobenzonitrile]: 0.1 to 10 nM, 10 to 100 nM and 100 to 2000 nM.
Consider `CO[C@H]1CCN(c2ccn(-c3cc(-c4c(F)cccc4C#N)nc4c3C(=O)NC4)n2)C[C@@]1(C)O` [I-229, 3-fluoro-2-(4-(3-((3R,4S)-3-hydroxy-4-methoxy-3-methylpiperi-din-1-yl)-1H-pyrazol-1-yl)-5-oxo-6,7-dihydro-5H-pyrrolo[3,4-b]pyridin-2-yl)benzonitrile], for which the figures for the Ki in test [1] and in test [2] were 0.009 to 0.1 nM and 10 to 100 nM, respectively. This compound registered an EC50 in test [3] of 100 to 2000 nM.
`CO[C@@H]1CN(c2ccn(-c3cc(-c4c(F)cccc4C#N)nc4c3C(=O)NC4)n2)C[C@@H]1O` [I-154, 3-fluoro-2-(4-(3-((3S,4R)-3-hydroxy-4-methoxypyrrolidin-1-yl)-1H-pyrazol-1-yl)-5-oxo-6,7-dihydro-5H-pyrrolo[3,4-b]pyridin-2-yl)benzonitrile]: in test [1], the Ki fell in the range of 0.1 to 10 nM. For the same compound, in test [3], the EC50 lay in the range of 30 to 100 nM.
With `N#Cc1cccc(F)c1-c1cc(-n2ccc(N3CCCC(CO)C3)n2)c2c(n1)CNC2=O` (centres unmarked) [I-86, 3-fluoro-2-(4-(3-(3-(hydroxymethyl)piperidin-1-yl)-1H-pyrazol-1-yl)-5-oxo-6,7-dihydro-5H-pyrrolo[3,4-b]pyridin-2-yl)benzonitrile], the Ki in test [1] fell in the range of 0.1 to 10 nM; in test [2], 10 to 100 nM. In test [3], this compound showed an EC50 of 100 to 2000 nM.
Take `N#Cc1cccc(F)c1-c1cc(-n2ccc(N3CC[C@@H](C#N)C3)n2)c2c(n1)CNC2=O` [I-127, (R)-1-(1-(2-(2-cyano-6-fluorophenyl)-5-oxo-6,7-dihydro-5H-pyrrolo[3,4-b]pyridin-4-yl)-1H-pyrazol-3-yl)pyrrolidine-3-carbonitrile]: the figures for the Ki in test [1] and in test [2] were 0.1 to 10 nM and 10 to 100 nM, respectively. The compound also came in with an EC50 in test [3] of 30 to 100 nM.
For the compound `N#Cc1cccc(F)c1-c1cc(-n2ccc(N3CCOC[C@H](O)C3)n2)c2c(n1)CNC2=O` [I-132, (R)-3-fluoro-2-(4-(3-(6-hydroxy-1,4-oxazepan-4-yl)-1H-pyrazol-1-yl)-5-oxo-6,7-dihydro-5H-pyrrolo[3,4-b]pyridin-2-yl)benzonitrile], the Ki in test [1] fell in the range of 0.1 to 10 nM; in test [2], 10 to 100 nM. Also, the EC50 in test [3] fell in the range of 100 to 2000 nM.
As for `N#Cc1cccc(F)c1-c1cc(-n2ccc(N3CCC(F)C(O)C3)n2)c2c(n1)CNC2=O` (centres unmarked) [I-160, 3-fluoro-2-(4-(3-(4-fluoro-3-hydroxypiperidin-1-yl)-1H-pyrazol-1-yl)-5-oxo-6,7-dihydro-5H-pyrrolo[3,4-b]pyridin-2-yl)benzonitrile], the Ki was 0.009 to 0.1 nM in test [1] and 0.1 to 10 nM in test [2]. In test [3], this compound returned an EC50 of 30 to 100 nM.
The matching figures for `N#Cc1cccc(F)c1-c1cc(-n2ccc(N3CC[C@H](C#N)C3)n2)c2c(n1)CNC2=O` [I-128, (S)-1-(1-(2-(2-cyano-6-fluorophenyl)-5-oxo-6,7-dihydro-5H-pyrrolo[3,4-b]pyridin-4-yl)-1H-pyrazol-3-yl)pyrrolidine-3-carbonitrile]: 0.1 to 10 nM, 10 to 100 nM and 30 to 100 nM.
As to `N#Cc1cccc(F)c1-c1cc(-n2ccc(N3C[C@@H]4OCCO[C@@H]4C3)n2)c2c(n1)CNC2=O` [I-169, 3-fluoro-2-(4-(3-((4aR,7aS)-hexahydro-6H-[1,4]dioxino[2,3-c]pyrrol-6-yl)-1H-pyrazol-1-yl)-5-oxo-6,7-dihydro-5H-pyrrolo[3,4-b]pyridin-2-yl)benzonitrile], the Ki in test [1] and in test [2] was 0.1 to 10 nM throughout. In test [3], this compound returned an EC50 of 30 to 100 nM.
